In PubChem BioAssay (NCI) one finds TGI and GI50 data, which are given here for 15 compounds.

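In this assay, cells in 96-well plates receive the compound at five concentrations for 48 hours. Endpoints are linearly interpolated between the surrounding concentrations. Abbreviation: GI50, concentration required for 50% inhibition of growth. Definition used: TGI = concentration required for complete inhibition of growth.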

Some test systems named below: NCI-H522 lung; SR leukemia; HS 578T breast; RPMI-8226 leukemia; LOX IMVI melanoma; SK-OV-3 ovarian; NCI/ADR-RES ovarian; HOP-62 NSCLC; OVCAR-4 ovarian; MALME-3M melanoma.
What all share (assay): growth of human tumour cells (NCI), 48 h

On to `COc1ccc(CNC(=O)[C@H](Cc2ccc(O)cn2)NC(C)=O)cc1`, for which the TGI with NCI-H522 lung, with SR leukemia, in the test on HS 578T breast, in the test on RPMI-8226 leukemia, with LOX IMVI melanoma and in the test with SK-OV-3 ovarian was over 100 µM each time. Besides, the TGI with NCI/ADR-RES ovarian, in the test on HOP-62 NSCLC and with OVCAR-4 ovarian was over 100 µM in each case.

`CC(=O)O[C@@H]1O[Si](C(C)(C)C)(C(C)(C)C)[C@H](C)[C@H]1C`: the TGI in the test with NCI-H522 lung, with SR leukemia, in the test on RPMI-8226 leukemia, in the test with LOX IMVI melanoma, with SK-OV-3 ovarian and in the test with NCI/ADR-RES ovarian was over 100 µM throughout. The TGI was over 100 µM with HOP-62 NSCLC, over 100 µM in the test on OVCAR-4 ovarian and 90.1 µM in the test on MALME-3M melanoma.

Regarding `O=S(=O)(OI(O)CC(F)(F)F)C(F)(F)F`, the TGI with NCI-H522 lung, in the test on SR leukemia, in the test on RPMI-8226 leukemia, in the test on LOX IMVI melanoma, in the test with SK-OV-3 ovarian and in the test on NCI/ADR-RES ovarian was over 100 µM throughout. In addition, the TGI in the test on HOP-62 NSCLC and with OVCAR-4 ovarian was over 100 µM in each case.

`N#Cc1c(N)c(C#N)c2c(c1-c1ccc(Cl)cc1)COc1ccccc1-2`: the TGI in the test on SR leukemia is 26.3 µM; in the test on RPMI-8226 leukemia, 17.1 µM; in the test on LOX IMVI melanoma, over 100 µM; in the test on SK-OV-3 ovarian it was 36.9 µM; with NCI/ADR-RES ovarian it was 68.5 µM; in the test on HOP-62 NSCLC, 33.5 µM. In addition, the TGI came to 30 µM in the test with OVCAR-4 ovarian and 58.1 µM in the test on MALME-3M melanoma.

As to `OC(c1ccccc1)C(F)(F)c1nc2ccccc2o1` (stereo not drawn), the TGI with SR leukemia, in the test on HS 578T breast, with RPMI-8226 leukemia, with LOX IMVI melanoma, in the test with SK-OV-3 ovarian and in the test with NCI/ADR-RES ovarian was over 100 µM throughout. Moreover, the TGI in the test with HOP-62 NSCLC and in the test with OVCAR-4 ovarian was over 100 µM throughout.

On to `COc1ccc2nc3n(c2c1)C(c1c(Cl)cccc1Cl)SC3` (stereo not drawn), for which the TGI in the test on SR leukemia, with RPMI-8226 leukemia, with LOX IMVI melanoma, in the test on SK-OV-3 ovarian, in the test with NCI/ADR-RES ovarian and with HOP-62 NSCLC was over 100 µM throughout. The same compound displayed a TGI in the test with OVCAR-4 ovarian of 65.9 µM.

In the case of `CCOC(=O)N1[C@@H]2CCC[C@@H]2C(=O)[C@@H]2CCC[C@@H]21`, the TGI with SR leukemia, in the test on HS 578T breast, in the test with RPMI-8226 leukemia, in the test with LOX IMVI melanoma, in the test on SK-OV-3 ovarian and in the test with NCI/ADR-RES ovarian was over 100 µM in each case. Further, the TGI in the test on HOP-62 NSCLC and with OVCAR-4 ovarian was over 100 µM throughout.

Regarding `O=[N+]([O-])c1cccc2nc3ccccc3c(NCCCN3CCCCC3)c12`, the TGI in the test on NCI-H522 lung stood at 0.0236 µM; in the test on HS 578T breast, 0.0966 µM; in the test with RPMI-8226 leukemia it was 0.0611 µM; in the test with LOX IMVI melanoma it was 0.0562 µM; in the test on SK-OV-3 ovarian, 0.1 µM; with NCI/ADR-RES ovarian, 4.9 µM. The TGI worked out at 0.0433 µM in the test with HOP-62 NSCLC, 0.031 µM with OVCAR-4 ovarian and 0.038 µM with MALME-3M melanoma.

`CCC(=O)NCCc1c2c3c(ccnc3c3ncsc13)-c1ccccc1N2`: the TGI with NCI-H522 lung is 38.4 µM; in the test with HS 578T breast, 18.7 µM; in the test on RPMI-8226 leukemia, 19.8 µM; with LOX IMVI melanoma, over 82.6 µM; with SK-OV-3 ovarian it was over 100 µM; in the test with NCI/ADR-RES ovarian it was over 100 µM. The TGI with HOP-62 NSCLC, with OVCAR-4 ovarian and with MALME-3M melanoma was over 100 µM each time.

With `CCOC(=O)c1[nH]c2nc(SC)nc(Nc3ccccc3Cl)c2c1N`, the TGI in the test on NCI-H522 lung stood at 53.4 µM; in the test with HS 578T breast, 61.8 µM; in the test with RPMI-8226 leukemia it was 43.5 µM; with LOX IMVI melanoma, 44.8 µM; in the test on SK-OV-3 ovarian, 56.7 µM; with NCI/ADR-RES ovarian it was 73.3 µM. In addition, the TGI with HOP-62 NSCLC worked out at 41.3 µM; with OVCAR-4 ovarian, 60.3 µM; in the test with MALME-3M melanoma, 67 µM.

With `COc1cc2c(c(OC(C)=O)c1OC(C)=O)-c1ccc(SC)c(=O)cc1C(NC(C)=O)CC2` (stereo not drawn), the TGI with NCI-H522 lung is 1.2 µM; in the test with SR leukemia, over 100 µM; in the test on RPMI-8226 leukemia, over 100 µM; in the test on LOX IMVI melanoma, over 100 µM; with SK-OV-3 ovarian, over 36 µM; with HOP-62 NSCLC it was over 75.5 µM. In addition, the TGI in the test on OVCAR-4 ovarian and with MALME-3M melanoma was over 100 µM each time.

With `NC(N)=NC(N)=Nc1ccccc1` (tested in a mixture with another compound), the TGI in the test with NCI-H522 lung, with HS 578T breast, in the test with LOX IMVI melanoma, with SK-OV-3 ovarian, in the test with NCI/ADR-RES ovarian and with HOP-62 NSCLC was over 100 µM in each case. Besides, the TGI with OVCAR-4 ovarian and in the test with MALME-3M melanoma was over 100 µM in each case.

In the case of `CN(C)CCCNC(=O)c1cc(NC(=O)c2cc(NC(=O)[C@@H]3C[C@H]3C(=O)Nc3cc(C(=O)Nc4cc(C(=O)NCCCN(C)C)n(C)c4)n(C)c3)cn2C)cn1C`, the TGI with NCI-H522 lung, in the test on SR leukemia, in the test with RPMI-8226 leukemia, in the test with LOX IMVI melanoma, with NCI/ADR-RES ovarian and with HOP-62 NSCLC was over 100 µM throughout. In addition, the TGI in the test with OVCAR-4 ovarian and in the test with MALME-3M melanoma was over 100 µM throughout.

Consider `Cc1ccc(C2CC(c3cccc(Nc4ccncc4)c3)=NN2c2ccccc2)cc1` (stereo not drawn), for which the GI50 in the test on SR leukemia was 2.07 µM; in the test on SK-OV-3 ovarian it was 2.34 µM; with OVCAR-4 ovarian, 1.69 µM. The results for the TGI with SR leukemia, in the test with SK-OV-3 ovarian and with OVCAR-4 ovarian were 5.73 µM, 5.88 µM and 3.12 µM, respectively.

For the compound `CC1=CC(C)(C)Nc2ccc(CSc3ccccc3)cc21`, the TGI in the test with NCI-H522 lung is 46.5 µM; with HS 578T breast, over 100 µM; in the test on RPMI-8226 leukemia, 31.2 µM; with LOX IMVI melanoma, 82.3 µM; in the test with SK-OV-3 ovarian, 90.1 µM; with NCI/ADR-RES ovarian, over 100 µM. Moreover, the results for the TGI with HOP-62 NSCLC, in the test on OVCAR-4 ovarian and in the test with MALME-3M melanoma were 80 µM, 46.1 µM and 47.5 µM, respectively.
